Non-standard residues stand in square brackets, D forms with d. Residues, ends and D or L forms follow the SMILES beside them. pGlu = O=C1CC[C@@H](C(=O)O)N1; azaGly = NNC(=O)O
Row | melting point | Structure (SMILES)
1 | 54 to 56 °C | CCCCCCCCCCCCCCCCCCN(CCCCCCCCCCCCCCCCCC)CCCN(CCOC(=O)Nc1ccccc1)CCOC(=O)Nc1ccccc1
2 | > 300 °C | O=C1c2cc(Sc3ccc(Cl)cc3)c(Sc3ccc(Cl)cc3)cc2C(=O)c2c1c(O)c1cc(Sc3ccc(Cl)cc3)c(Sc3ccc(Cl)cc3)cc1c2O
3 | 218 to 220 °C | CC(=O)OCC1OC(OC2C(COC(C)=O)OC(OC3C(CO)OC(OCCBr)C(OC(=O)c4ccccc4)C3OC(=O)c3ccccc3)C(OC(C)=O)C2OC(C)=O)C(OC(C)=O)C(OC(C)=O)C1OC(C)=O (stereo unspecified)
4 | 159 to 161 °C | COc1ccc(C(c2ccccc2)C(C)(C(=O)C(C)(C(c2ccccc2)c2ccc(OC)c(OC)c2)N2C(=O)c3ccccc3C2=O)N2C(=O)c3ccccc3C2=O)cc1OC (stereo unspecified)
5 | 230 to 235 °C | CC(=O)C1CCC2C3CCC4CC(O)(C#Cc5cccnc5)CCC4(C)C3CCC12C (stereo unspecified)
6 | 287 to 292 °C | COc1cccc(Sc2cc3c(cc2Sc2cccc(OC)c2)C(=O)c2c(c(O)c4cc(Sc5cccc(OC)c5)c(Sc5cccc(OC)c5)cc4c2O)C3=O)c1
7 | 179 to 180 °C | CC(C)C[C@H](NC(=O)[C@@H](Cc1ccccc1)NC(=O)[C@H](Cc1ccc(O)cc1)NC(=O)[C@H](CO)NC(=O)[C@H](Cc1c[nH]c2ccccc12)NC(=O)[C@@H](Cc1ccccc1)NC(=O)[C@@H]1CCC(=O)N1)C(=O)N[C@@H](CCCNC(=N)N)C(=O)N1CCC[C@H]1C(=O)NNC(N)=O ([pGlu][dF]WSY[dF]LRP[azaGly]-NH2)
8 | 292 to 294 °C | Cc1c(Cc2ccccc2)sc2nc(N)[nH]c(=O)c12
9 | 260 to 262 °C | Cc1cccc(-c2sc(N)nc2-c2ccc([N+](=O)[O-])c(O)c2)n1
10 | 58 °C | C[C@H](CCN(CCCCNC(=O)[C@@H](NC(=O)CCCCCCNC(=NC(=O)OCc1ccccc1)NC(=O)OCc1ccccc1)O[C@@H](C)c1ccc2ccccc2c1)C(=O)OCc1ccccc1)NC(=O)OCc1ccccc1
11 | 128 °C | CC(C)CCCOC(=O)NCCc1nc(-c2ccc(-c3ccccc3)cc2)c[nH]1
12 | -40 °C | CC(O)CN(C)C (stereo unspecified)
13 | 108 to 110 °C | O=S(=O)(CCCCCOc1ccc(C2=C(c3ccc(OC4CCCCO4)cc3)CCCc3cc(OC4CCCCO4)ccc32)cc1)CCCC(F)(F)C(F)(F)F (stereo unspecified)
14 | 197 °C | Cc1c(NC(=O)c2cccc(OCC(=O)NCCNC(=O)COc3cccc(C(=O)O)c3)c2)c2ccccn2c1C(=O)c1ccc(NC(=O)C(F)(F)F)c(C(=O)OCc2ccccc2)c1
15 | 86 to 87 °C | CCCCCCCCCCOc1cc2c3c(c4cc(OCCCCCCCCCC)c(OCCCCCCCCCC)cc4c2cc1OCCCCCCCCCC)C(=O)C=CC3=O
16 | 112 to 114 °C | CCOC(=O)Cc1ccc(-c2nc(COc3ccc(COc4nn(-c5ccccc5)cc4/C=C/c4nc(N5CCN(C(=O)OC(C)(C)C)CC5)sc4C)cc3OC)c(C)o2)cc1

Further lines, the compound ahead of its results:

Row | Structure (SMILES) | melting point
17 | CC(C)[Si](OC(=O)C(Cc1cc(I)c(Oc2cc(I)c(OCC3CO3)c(I)c2)c(I)c1)NC(=O)OC(C)(C)C)(C(C)C)C(C)C (stereo unspecified) | 109 °C
18 | CC(CCOc1c(I)cc(I)cc1I)Oc1c(I)cc(I)cc1I (stereo unspecified) | 173 to 175 °C
19 | COc1ccc(C(O)CNCc2ccccc2[N+](=O)[O-])cc1OC (stereo unspecified) | 120 to 121 °C
20 | CO/N=C(\C(=O)N[C@@H]1C(=O)N2C(C(=O)OC(C)(C)C)=C(CI)SC[C@H]12)c1nc(C(c2ccccc2)(c2ccccc2)c2ccccc2)sc1N | 150 °C
21 | CC(C)CC(NC(=O)OCc1ccccc1)C(=O)NC(C)C(=O)NC(CCCN(C(=N)NC(=O)OCc1ccccc1)C(=O)OCc1ccccc1)C(=O)Oc1cccc2ccccc12 (stereo unspecified) | 179 to 183 °C
22 | COC(=O)C(CCN1C(=O)c2ccccc2C1=O)Oc1c(Br)cc(-c2c3ccccc3c(Br)c3sc4ccccc4c23)cc1Br (stereo unspecified) | 221 to 222 °C
23 | COc1cc(OC)c(/C=C/C(c2ccc(OC)c(NC(N)=O)c2)S(=O)(=O)C(/C=C/c2c(OC)cc(OC)cc2OC)c2ccc(OC)c(NC(N)=O)c2)c(OC)c1 (stereo unspecified) | 218 to 220 °C
24 | CCC(C)CNC(=O)C(CC(O)C(CC(C)C)NC(=O)C(Cc1cscn1)NC(=O)C(CC(=O)N(C)C1CCCCC1)Cc1cccc2ccccc12)C(C)(C)O (mixture of isomers) | 187 to 190 °C
25 | O=C(Oc1ccc2c(OC(=O)c3ccc(OCc4ccccc4)cc3)c3cc(OC(=O)c4ccc(OCc5ccccc5)cc4)ccc3cc2c1)c1ccc(OCc2ccccc2)cc1 | 219 to 221 °C
26 | CC(=O)OCCn1c([N+](=O)[O-])cnc1CO | 138 to 145 °C
27 | O=C(O)Cc1cc(I)c(Oc2cc(I)c(OCC3CO3)c(I)c2)c(I)c1 (stereo unspecified) | 176 °C
28 | CCCCC1(CC)CS(=O)(=O)c2ccc(N(C)C)cc2C(c2cccc(NC(=O)COCCOCC(=O)NCc3ccc(N4C(=O)C(CCC(O)c5ccc(F)cc5)C4c4ccc(OC)cc4)cc3)c2)C1O (stereo unspecified) | 116 to 125 °C
29 | OP(=S)(C(F)(F)C(F)(F)C(F)(F)C(F)(F)C(F)(F)C(F)(F)C(F)(C(F)(F)F)C(F)(F)F)C(F)(F)C(F)(F)C(F)(F)C(F)(F)C(F)(F)C(F)(F)C(F)(C(F)(F)F)C(F)(F)F | > 300 °C
30 | C=CC(=O)NCNC(=O)C=C | 185 °C
31 | O=C(Oc1cccc2cc3cccc(OC(=O)c4ccccc4Oc4ccccc4)c3c(OC(=O)c3ccccc3Oc3ccccc3)c12)c1ccccc1Oc1ccccc1 | 110 °C
32 | CN(C)C(=O)c1cc2c(nc(C3CC3)n2C)c(O)c1CCC(O)c1ccccc1 (stereo unspecified) | 92 to 94 °C
33 | CC(=O)OCC1OC(OC2C(COC(C)=O)OC(OC3C(COC(C)=O)OC(OCCBr)C(N4C(=O)c5ccccc5C4=O)C3OC(C)=O)C(OC(C)=O)C2OC(C)=O)C(OC(C)=O)C(OC(C)=O)C1OC(C)=O (stereo unspecified) | 227 to 229 °C
34 | COCCOCCOc1cc2c3cc(OCCOCCOC)c(OCCOCCOC)cc3c3cc(OCCOCCOC)c(OCCOCCOC)cc3c2cc1OCCOCCOC | 54 °C
35 | C=C(C)[C@@H]1CC[C@]2(C(=O)N[C@@H]3C[C@H](C(=O)OCc4ccccc4)C3(C)C)CC[C@]3(C)[C@H](CC[C@@H]4[C@@]5(C)CC[C@H](OC(=O)CC(C)(C)C(=O)O)C(C)(C)[C@@H]5CC[C@]43C)[C@@H]12 | 64.7 to 100 °C
36 | Cc1ccc(Cc2cc(OCCCCCCCCCCCCP(=O)(O)O)ccc2S(=O)(=O)c2ccc(OCCCCCCCCCCCCP(=O)(O)O)cc2Cc2ccc(C)cc2)cc1 | 148 to 150 °C
37 | CCN(C(=O)NC)C1C(Cl)=C(OC2=C(Cl)C(N(CC)C(=O)NC)C(c3ccccc3C(F)(F)F)([N+](=O)[O-])C=C2)C=CC1(c1ccccc1C(F)(F)F)[N+](=O)[O-] (stereo unspecified) | 128 °C
38 | CSCC[C@H](NC(=O)[C@H](CC(C)C)NC(=O)[C@H](C)NC(=O)[C@@H](N)CC(C)C)C(=O)NCCNc1ccc(NCCNC(=O)[C@H](CCSC)NC(=O)[C@H](CC(C)C)NC(=O)[C@H](C)NC(=O)[C@@H](N)CC(C)C)c2c1C(=O)c1c(O)ccc(O)c1C2=O | 210 °C
39 | CC(C)(C)c1cc(C(=O)OCCN(CCOC(=O)c2cc(C(C)(C)C)c(O)c(C(C)(C)C)c2)C(=O)c2cc(C(C)(C)C)c(O)c(C(C)(C)C)c2)cc(C(C)(C)C)c1O | 200 to 202 °C
40 | CCOC(=O)OC1=C(c2c(C)cc(C)cc2C)C(=O)NC12CCN(N(C)C)CC2 | 162 to 166 °C
41 | [C-]#[N+]C1Cc2ccccc2C(=C)c2ccccc21 (stereo unspecified) | 96 to 98 °C

Source: a melting point compilation (Tetko et al.)
